We go through 10 molecules from patent publication US9475817B2 (BRISTOL-MYERS SQUIBB COMPANY, priority 2012, dated 2016).

Each structure is given as a SMILES string.

One test concerns the target CK1ε (Homo sapiens (Human), UniProt P49674). Description: CK1ε kinase assay (Caliper LabChip, fluoresceinated peptide substrate). Type of test: biochemical. To be noted: 200 pM CK1ε, 50 μM ATP, 1.5 μM peptide substrate, 22 hours room temperature. On the procedure: (§1) CK1ε and CK1δ Kinase Assays
(§2) The kinase assay was performed in V-bottom 384-well plates. […] The reaction was incubated at room temperature for 22 hours and terminated by adding 45 μl of 35 mM EDTA to each sample. […] Compounds were dissolved at 10 mM in dimethylsulfoxide (DMSO) and evaluated at eleven concentrations. IC50 values were derived by non-linear regression analysis.

A further test has as its target CK1δ (Homo sapiens (Human), UniProt P48730). Description: CK1δ kinase assay (Caliper LabChip, fluoresceinated peptide substrate). Type of test: biochemical. To be noted: 200 pM CK1δ, 50 μM ATP, 1.5 μM peptide substrate, 22 hours room temperature. The protocol: as §1, §2

Sequence of CK1δ (P48730 whole entry): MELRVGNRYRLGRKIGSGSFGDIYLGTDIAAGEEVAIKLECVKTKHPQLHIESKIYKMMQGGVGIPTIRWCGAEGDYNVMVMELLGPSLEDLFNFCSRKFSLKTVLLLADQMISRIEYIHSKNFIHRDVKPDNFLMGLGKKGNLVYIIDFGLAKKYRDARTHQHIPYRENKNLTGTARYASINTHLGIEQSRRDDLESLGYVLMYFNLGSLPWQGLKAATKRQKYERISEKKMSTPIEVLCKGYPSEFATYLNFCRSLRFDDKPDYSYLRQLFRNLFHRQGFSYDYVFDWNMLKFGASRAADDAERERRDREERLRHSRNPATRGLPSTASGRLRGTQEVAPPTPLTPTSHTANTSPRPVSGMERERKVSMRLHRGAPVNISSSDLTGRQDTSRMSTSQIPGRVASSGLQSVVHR
Sequence of CK1ε (P49674 whole entry): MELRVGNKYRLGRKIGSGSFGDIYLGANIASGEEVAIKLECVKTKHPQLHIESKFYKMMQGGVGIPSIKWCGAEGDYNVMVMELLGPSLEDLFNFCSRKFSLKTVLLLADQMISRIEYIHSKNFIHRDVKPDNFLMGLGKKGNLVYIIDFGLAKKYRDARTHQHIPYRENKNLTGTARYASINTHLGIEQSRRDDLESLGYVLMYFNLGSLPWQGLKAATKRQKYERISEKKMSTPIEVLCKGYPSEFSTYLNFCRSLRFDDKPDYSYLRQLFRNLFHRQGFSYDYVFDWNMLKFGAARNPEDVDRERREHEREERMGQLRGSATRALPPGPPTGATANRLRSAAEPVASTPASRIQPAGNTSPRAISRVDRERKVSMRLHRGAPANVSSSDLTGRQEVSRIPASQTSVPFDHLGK

In general, IC50 refers to the concentration that gives 50% inhibition. Turning to `COc1cc(C(=O)Nc2cn3nc(-c4c(-c5ccc(F)cc5)nn(C)c4N4CCNCC4)ccc3n2)ccn1` [Compound 118, N-(6-(3-(4-Fluorophenyl)-1-methyl-5-(piperazin-1-yl)-1H-pyrazol-4-yl)imidazo[1,2-b]pyridazin-2-yl)-2-methoxyisonicotinamide], the IC50 is 3.6 nM against CK1ε and 0.8 nM against CK1δ.
Taken in the same sequence, the figures for `Cn1nc(-c2ccc(F)cc2)c(-c2ccc3nc(NC(=O)c4ccncc4)cn3n2)c1C1CCNCC1` [Compound 164, N-(6-(3-(4-Fluorophenyl)-1-methyl-5-(piperidin-4-yl)-1H-pyrazol-4-yl)imidazo[1,2-b]pyridazin-2-yl)isonicotinamide] were 3.3 nM and 0.9 nM.
Regarding `Cn1nc(-c2ccc(F)cc2)c(-c2ccc3nc(NC(=O)c4ccnc(F)c4)cn3n2)c1N1CCN(C[C@H](O)C(F)(F)F)CC1` [Compound 128, (S)-2-Fluoro-N-(6-(3-(4-fluorophenyl)-1-methyl-5-(4-(3,3,3-trifluoro-2-hydroxypropyl)piperazin-1-yl)-1H-pyrazol-4-yl)imidazo[1,2-b]pyridazin-2-yl)isonicotinamide], the values for the IC50 on CK1ε and against CK1δ were 10.6 nM and 1.5 nM, respectively.
As for `Cc1nc(-c2ccncc2)sc1C(=O)Nc1cn2nc(-c3c(-c4ccc(F)cc4)nn(C)c3C3CCNCC3)ccc2n1` [Compound 179, N-(6-(3-(4-Fluorophenyl)-1-methyl-5-(piperidin-4-yl)-1H-pyrazol-4-yl)imidazo[1,2-b]pyridazin-2-yl)-4-methyl-2-(pyridin-4-yl)thiazole-5-carboxamide], the IC50 stood at 1.5 nM against CK1ε and 1.4 nM on CK1δ.
Taken in the same sequence, the figures for `CCc1ccc(C(=O)Nc2cn3nc(-c4cn(C)nc4-c4ccc(F)cc4)ccc3n2)nc1` [Compound 76, 5-ethyl-N-(6-(3-(4-fluorrophenyl)-1-methyl-1H-pyrazol-4-yl)imidazo[1,2-b]pyridazin-2-yl)picolinamide] were 64 nM and 11.9 nM.
The corresponding values for `Cc1nc(-c2ccccn2)sc1C(=O)Nc1cn2nc(-c3cn(C4CC4)nc3-c3ccc(F)cc3)ccc2n1` [Compound 110, N-(6-(1-cyclopropyl-3-(4-fluorophenyl)-1H-pyrazol-4-yl)imidazo[1,2-b]pyridazin-2-yl)-4-methyl-2-(pyridin-2-yl)thiazole-5-carboxamide] are 28.8 nM and 5.5 nM.
`Cn1nc(-c2ccc(F)cc2)c(-c2ccc3nc(NC(=O)c4ccnc(N5CCOCC5)c4)cn3n2)c1C1CCN(CC(N)=O)CC1` [Compound 163, N-(6-(5-(1-(2-Amino-2-oxoethyl)piperidin-4-yl)-3-(4-fluorophenyl)-1-methyl-1H-pyrazol-4-yl)imidazo[1,2-b]pyridazin-2-yl)-2-morpholinoisonicotinamide]: the results for the IC50 against CK1ε and against CK1δ were 0.6 nM and 0.4 nM, respectively.
Taken in the same sequence, the figures for `Cn1cc(-c2ccc3nc(NC(=O)CC(F)(F)F)cn3n2)c(-c2ccc(F)cc2)n1` [Compound 99, 3,3,3-trifluoro-N-(6-(3-(4-fluorophenyl)-1-methyl-1H-pyrazol-4-yl)imidazo[1,2-b]pyridazin-2-yl)propanamide] were 47.3 nM and 10.3 nM.
`Cc1nc(-c2ccncc2)sc1C(=O)Nc1cn2nc(-c3c(-c4ccc(F)cc4)nn(C)c3C3CCN(CCC(F)(F)F)CC3)ccc2n1` [Compound 181, N-(6-(3-(4-fluorophenyl)-1-methyl-5-(1-(3,3,3-trifluoropropyl)piperidin-4-yl)-1H-pyrazol-4-yl)imidazo[1,2-b]pyridazin-2-yl)-4-methyl-2-(pyridin-4-yl)thiazole-5-carboxamide]: the IC50 is 14.3 nM against CK1ε and 1.1 nM at CK1δ.
Take `Cn1cc(-c2ccc3nc(NC(=O)c4cc(F)ccc4F)cn3n2)c(-c2ccc(F)cc2)n1` [Compound 51, 2,5-difluoro-N-(6-(3-(4-fluorophenyl)-1-methyl-1H-pyrazol-4-yl)imidazo[1,2-b]pyridazin-2-yl)benzamide]: the IC50 at CK1ε is 22.9 nM; against CK1δ, 6.3 nM.
